# In paper PMC8766756, “Insights on Cancer Cell Inhibition, Subcellular Activities, and Kinase Profile of Phenylacetamides Pending 1H-Imidazol-5-One Variants” (Frontiers in Pharmacology, 2022):
# “Also recorded” adds a separate entry of the source.
# Assays:
# [1] = Reactivity with GSH (LC/MS); assay type: physicochemical; settings: 37°C
# Excerpt: Because KIM-161 contains α,β-enone moiety, it was investigated for its reactivity with glutathione (GSH), an important cellular component for maintaining the desired redox balance ([Aquilano et al., 2014]).
# GSH and solvents were purchased from Sigma-Aldrich. The LC/MS system is composed of an Agilent 1200 HPLC system, a solvent delivery module, a quaternary pump, an autosampler, and a column compartment (Agilent Technology, Germany). The column effluent was connected to an Agilent 6320 Ion Trap-ESI-MS. The column heater was set to 25 ± 2°C. The control of the HPLC system and data processing were performed using ChemStation (Rev. B.01.03 SR2-204) and 6300 Series Trap Control version 6.2 Build No. 62.24 (Bruker Daltonik GmbH). The analytes were separated using an Agilent Zorbax Extend-C18 column (80Å, 150 mm length × 4.6 mm, i.d., 5 μm) and Agilent-Zorbax Extend-C18 pre-column (Agilent Technologies, Palo Alto, CA, USA). The general MS adjustments were set as follows: capillary voltage, 4000 V; nebulizer, 35 psi; drying gas, 12 L/min; desolvation temperature, 350°C; ion charge control smart target, 150,000; and max. accumulation time, 150 ms. The Auto-MSn positive mode was applied. The mobile system was isocratic elution using 55% acetonitrile and 45% water containing 0.1% formic acid (w/v). […]
# HCT116 cells = assay: Cytotoxic assay in presence of antioxidant N-acetylcysteine; assay type: cell-based; settings: 48 h, MTT
# Excerpt: Oxidative stress expressed as the reactive oxygen species (ROS) level is an important marker in cell death under the effect of certain cytotoxic drugs. Elevation of ROS may occur as a direct mechanism of some drugs such as Adriamycin ([Kim et al., 2019]) and trans-cinnamaldehyde ([Afanas’ev, 2011]; [Ka et al., 2003]) (safe covalent natural compound) or indirectly by the modulation of certain cellular contents ([Teppo et al., 2017]; [Perillo et al., 2020]). The involvement of ROS elevation and oxidative stress in the cytotoxic activities of KIM-161 on HCT116 was assessed. In this assay, the antioxidant N-acetylcysteine (NAC) was added at a very high concentration (5 mM) to check if it reverses the cytotoxic activities of KIM-161 on HCT116.
# FIGURE 10 Effect of antioxidant pretreatment on viability of HCT116 treated with KIM-161. […] Cell viability was expressed as a percentage of vehicle control and was measured by the MTT assay (average of two independent experiments). Statistical significance was determined by two-way ANOVA using Šídák’s multiple comparisons test. * = p < 0.05; *** = p ≤ 0.001; **** = p < 0.0001.
# HCT116 cells were seeded at a density of 5 × 10^4 cells/well in 96-well plates and left overnight to adhere. […] Cell viability was expressed as a percentage of the vehicle control (1% v/v ethanol) and was assessed using the MTT assay (data are expressed as mean ± SEM). […]
# HL60 cells = assay: Apoptosis detection by caspase-3 activity; assay type: cell-based, human; settings: HL60, 1 μM, 48 h
# Excerpt: The activated caspase-3 is a marker for cell apoptosis that proteolytically cleaves and activates other caspases and intracellular targets ([Patel et al., 1996]). Caspase-3, which is activated during the early stages of apoptosis, could be measured in HL60 cells undergoing apoptosis by using fluorescein isothiocyanate (FITC)–conjugated active caspase-3 antibody.
# FITC conjugated active caspase-3 antibody (BD biosciences, USA) was used to detect the active form of caspase-3 in the cells undergoing apoptosis. Cells were plated in a 6-well culture plate at a density of 0.5 × 10^6 cells and harvested after 24 and 48 h of incubation with the test compound. The collected cells were washed twice with cold 1X PBS and then resuspended in 0.5 ml of BD Cytofix/Cytoperm solution followed by a 20-min incubation on ice. After incubation, the cells were washed twice in a BD Perm/Wash buffer (1X) and were labelled with 5 µL of FITC rabbit anti-caspase-3 antibodies. The labelled cells were washed again with wash buffer and resuspended in 0.5 ml of buffer and analyzed by acquiring a minimum of 5,000 events on the FACSAria III cell analyzer and sorter.
# [2] = Stability in mouse liver microsomes; assay type: in vitro ADME
# Experimental: The clearance of KIM-161 in MLM or HLM was determined at 37°C as previously described ([Yang et al., 2007]). Both MLM and HLM were obtained from Merck KGaA (Darmstadt, Germany), Cat. No. M9441 (MLM) and M0317 (HLM). The assays were conducted in triplicate in 96-well deep polypropylene plates. […] At five time points, the reaction mixture aliquots were transferred to 96-shallow well stop plates on ice containing acetonitrile with 0.1 µM propafenone. […] The standard curves for the test compound were generated using five concentrations in triplicate that were processed as above but with zero incubation time. The stop plates were centrifuged at 2000g for 10 min, and then, the supernatant aliquots were transferred to a Waters Aquity® UPLC 700 µL 96-well sample plate with cap mat (Waters, Milford, MA). The amount of the compound remaining in the supernatant was quantified by LC/MS/MS using a Waters Xevo TQ MS (electrospray positive mode) coupled to a Waters Aquity® UPLC (BEH column, C18). Propafenone was used as the internal standard. GraphPad® Prism v.5.04 was used for nonlinear fitting of time course data to generate t1/2 values.
compound,measurement,setting,value
"COc1ccc(/C=C2\N=C(C)N(c3ccc(CC(=O)NCc4ccccc4)cc3)C2=O)cc1 [Compound 4c, (Z)-N-Benzyl-2-(4-(4-(4-methoxybenzylidene)-2-methyl-5-oxo-4,5-dihydro-1H-imidazol-1-yl)phenyl)acetamide]",Reactivity with GSH,"[1]; pH 7.5, up to 48 h, LC/MS, listed as KIM-161",did not show any significant reaction with GSH; also recorded: could not react with GSH; also recorded: No reaction
same,unreacted compound (UV spectrum),[1]; after 48 h with GSH,> 98%
same,change of cytotoxic effect by NAC addition,"HCT116 cells; HCT116, KIM-161 0.5 µM, NAC 5 mM pretreatment 1 h",slightly altered
same,change of cytotoxic effect by NAC addition,"HCT116 cells; HCT116, increasing KIM-161 concentration (1.0, 5.0 µM), NAC 5 mM",higher involvement of this factor in the anticancer effect
same,Casp3 active %P,HL60 cells,49.94%
same,increase in the cells undergoing apoptosis (active caspase-3) vs untreated,HL60 cells,~10 fold
same,MLM stability,"[2]; mouse liver microsomes, 37°C, t1/2",14.8 min
same,% Remaining in MLM with NADPH,"[2]; with NADPH, >60 min, listed as KIM-161",unchanged
same,% Remaining in MLM without NADPH,"[2]; without NADPH, >60 min, listed as KIM-161",Unchanged >60 min
